US10918891B2, “Cosmetic treatment method for the skin” (SYNTIVIA, priority 2016, dated 2021)

How the values were obtained:
MMP1 = MMP1 immunofluorescence on human skin explants after repeated UVA irradiation; assay type: cell-based; conditions: skin explant, (Ia) 100 ppm
Protocol: In these examples, the protective properties of the compound (Ia) against the damage caused to the DNA and to the extracellular matrix by repeated UVA irradiation, are measured on explants of human skin (NATIVESKIN, Genoskin).
Upon reception of the explants, the latter are topically coated with Carbopol® (Lubrizol)+DMSO for the non-UVA control (CTL without stress) and for the control with stress by UVAs (CTL UVA), and with Carbopol®+compound (Ia) at 100 ppm for the test.
Over three days, the cells are subjected to three stresses with UVAs at a rate of 50 joules per square centimetre.
The first irradiation takes place 24 hours after the treatments. The products are present before, during and after the irradiation. The control without stress is wrapped in aluminium and also placed in the irradiator.
During the irradiation, the explants inserted are disposed in a petri dish with PBS. Fresh medium (Genoskin Culture medium) is added after the irradiation.
After the third day of irradiation, the explants are cultivated for 24 hours, then collected and fixed for 48 hours in formalin (Sigma). The samples are included in paraffin and cut.
A marking of the protein MMP1 by immunofluorescence on a paraffin section is carried out.
The samples are prepared for the fluorescent marking. […]
The sections are mounted on a slide and the fluorescence is quantified using a microscope (Leica DM5000B).

TNFα = test: Gene expression of TNFα by quantitative RT-PCR in NHEK; assay type: cell-based, human; conditions: (Ia) 3 ppm (10^−5M), 24 hours
Protocol: (§1) In these examples, the expression of the messenger RNA is measured by the technique of quantitative RT-PCR (reverse transcription followed by polymerase chain reaction), after incubation in vitro of the various cell types in the absence or in the presence of compound (Ia).
(§2) This study was carried out on normal human dermal Fibroblasts (NHDF) or normal human epidermal Keratinocytes (NHEK). The compound (Ia) is tested at 10^−5M in an aqueous solution with 0.1% dimethylsulfoxide.
(§3) The cells are cultured at the concentration of 10,000 cells per well of 96-well plates, in the presence of standard culture medium according to the cell type.
(§4) The compound (Ia) is then added at the concentration (3 ppm), for 24 hours.
(§5) The supernatant is eliminated and the cells are taken up in a specific buffer for the extraction of the messenger RNA (mRNA). The mRNA is purified and reverse transcribed in the presence of a commercial reverse transcriptase.
(§6) The complementary DNA (cDNA) obtained is quantified by RT-PCR, by means of suitable primers. The rate of expression of the mRNA is normalised with 5 reference genes.
(§7) The cells used for this example are normal human keratinocytes (NHEK).

MMP-3 = test: Gene expression of MMP-3 by quantitative RT-PCR in NHEK; assay type: cell-based, human; conditions: (Ia) 3 ppm (10^−5M), 24 hours
Protocol: as §1, §2, §3, §4, §5, §6, §7

[1] = test system: normal human Fibroblasts (NHDF); test: Cellular viability test with cadmium on NHDF; assay type: cell-based; conditions: pretreatment 24 h and treatment 24 h with (Ia) 10 ppm, Cd 3 ppm, read at 450 nm, CTL (Cd 3 ppm) 0.95
Protocol: The cells used for this example are normal human Fibroblasts (NHDF).
A cellular viability test with cadmium is carried out in order to know the protective effect of the compound (Ia) against polluting stress. Cadmium (Cd) is a toxic and ecotoxic heavy metal found in the environment.
The cells are cultured at the concentration of 7000 cells per well of 96-well plates.
The pretreatment is carried out 24 hours after the inoculation of the cells with the compound (Ia) at 10 ppm in an aqueous solution with 0.1% dimethylsulfoxide, or without compound (Ia) for 24 hours.
After the pretreatment, a treatment with cadmium is carried out. The cells are placed in the presence of cadmium at 3 ppm+compound (Ia) at 10 ppm, or only in the presence of cadmium at 3 ppm (CTL) for 24 hours at 37° C., 5% CO2. The control without stress (CTL without stress) corresponds to the cells not having undergone a treatment with cadmium.

IL8 = test: Gene expression of IL8 by quantitative RT-PCR in NHEK; assay type: cell-based, human; conditions: (Ia) 3 ppm (10^−5M), 24 hours
Protocol: as §1, §2, §3, §4, §5, §6, §7

[2] = test system: NativeSkin® skin explants (Genoskin); test: Breaks in the DNA (γ-H2AX marking) of NativeSkin skin explant ex vivo after UVA irradiation; assay type: cell-based, human; conditions: composition 0.9 mmol/L topical, 60 J/cm^2 UVA every day for 3 days, n=10 images, FIG. 7
Protocol: (§8) The test was carried out on NativeSkin® skin explants (Genoskin), a biopsy of skin bathed in a solid, nourishing matrix while its epidermal surface is preserved in contact with the air. The biopsy is firmly anchored in the matrix and sealed in order to prevent any lateral diffusion of formulation intended for topical application.
(§9) The study was carried out on a donor (phototype 2) under the following conditions.
(§10) The compounds tested are implemented in a composition containing them at 0.9 mmol/L in a mixture of Carbopol® (0.5% p/p), DMSO (0.1% p/p) and H2O (qsp 100%).
(§11) The samples are irradiated at 60 J/cm^2 UVA every day for 3 days. A treatment is carried out for 24 h before the irradiation, by application of the composition tested onto the sample (deposition of 40 μl of composition onto the stratum corneum), then a post-treatment of 24 h after the irradiation, in the same manner.
(§12) A Control of the sample of skin non-irradiated and a Control of the sample of skin irradiated are also carried out, both with application of the vehicle alone (0.5% Carbopol®, 0.1% DMSO, H2O). The Control of the non-irradiated sample of skin is introduced into the irradiator in a sheet of aluminium, in such a way as to protect it against UVs.
(§13) The samples are sampled, cut (according to the conventional method of cryo-sectioning implementing paraffin and freezing) and fixed in 1 ml of formalin for 24 h.
(§14) The explants are then included in paraffin and sections of 5 μm are made.
The slides obtained are also marked by immunohistochemistry with the biomarker γ-H2Ax.
(§15) The analysis of the marking is carried out with a DM5000B fluorescence microscope (Leica Microsystems) and 10 images are acquired for each sample.
For the marking with γ-H2Ax, for each image, the total number of nuclei is detected with 4′,6-diamidino-2-phenylindole (dapi). In the same image, the number of nuclei having the marking is quantified. The ratio of the number of positive nuclei, multiplied by 100, to the number of total nuclei, is calculated, in order to obtain a percentage (=(positive nuclei*100)/total nuclei), n=10 per sample.
A statistical analysis is carried out with a student's test by comparing the samples to the control (p value[…], p value<0.05**, p value<0.005***, ns not significant).

[3] = test system: NativeSkin® skin explants (Genoskin); test: Histological analysis (haematoxylin/eosin) of NativeSkin skin explant ex vivo after UVA irradiation; assay type: cell-based, human; conditions: composition 0.9 mmol/L topical, 60 J/cm^2 UVA every day for 3 days, FIG. 5
Protocol: as §8, §9, §10, §11, §12, §13, §14
The slides are then coloured with haematoxylin (basic compound marking the nuclei) and eosin (acidic compound marking the conjunctive tissue).
as §15

Cc1ncc(CO)c(CNC(=O)/C=C/c2ccc(O)c(O)c2)c1O [Compound (Ia)]
Average fluorescence intensity of the MMP1 marking (AU) (MMP1; CTL UVA 165.2, CTL without stress 141.6): 146.2 AU
Cells positive for MMP1 based on 100% (MMP1; relative to CTL without stress, CTL UVA +16.7%): +3.2%
Reduction of the gene expression compared to the basal level based on 100% (TNFα) (TNFα): −45%
Reduction of the gene expression compared to the basal level based on 100% (MMP-3) (MMP-3): −50%
Cellular viability during the exposure or non-exposure to cadmium (optical density) [1]: 1.28 optical density
Reduction of the gene expression compared to the basal level based on 100% (IL8) (IL8): −75%
percentage of nuclei positive for marking with γ-H2AX, compared with controls [2]: clearly reduced with respect to the irradiated control sample
Morphology of the epidermis after UVA irradiation (histological analysis) [3]: totally protected
